Entries after “also recorded” stand apart in the source; their conditions may differ. Where two headings read alike, the source gives them in different places.
What was measured:
SARS-CoV-2 [1] = experiment: microbe, parasite or virus in culture; settings: Severe acute respiratory syndrome coronavirus 2, Vero C1008, 24 h
SARS-CoV-2 [2] = settings: Vero E6 cells; for inhibition of SARS-CoV-2 in compound dilution series: 4 µM to 0.062 µM, 24 h post-infection
SARS-CoV-2 [3] = experiment: Survival screen: SARS-CoV-2-induced CPE, crystal violet staining; format: cell-based; settings: Vero E6 cells, 1 µM, 2 h pretreatment, MOI 0.01, 48 h
Protocol: Vero E6 cells were seeded in 96-well clear bottom, black wall plates (Costar, Tewksbury, MA, USA), at a density of 20,000 cells per well, one day prior to the experiment. Cells were pretreated for 2 h with 1 µM of each compound contained in the PRB. Remdesivir, K22 [17], and vehicle controls (DMSO) were included in each plate. Subsequently, cells were infected with SARS-CoV-2 at a multiplicity of infection (MOI) of 0.01 in compound-containing medium and incubated at 37 °C in a humidified incubator with 5% CO2. Uninfected (mock) controls were included in each plate. At 48 h post-infection (hpi), cells were fixed with 4% (v/v) neutral buffered formalin (Formafix AG, Hittnau, Switzerland) and stained with crystal violet. Cell viability and cytotoxicity were assessed in parallel, in identically treated, uninfected plates. […]
To identify potential antiviral compounds against SARS-CoV-2 replication, 201 antibacterial, 46 antifungal and 153 antiviral molecules included in the PRB were screened using a conservative concentration of 1 µM. […] Cell survival was scored from 0 (virus-induced cytopathogenic effects; CPE) to 1 (no CPE), upon evaluation of SARS-CoV-2-induced CPE using crystal violet staining (Figure 1A). The cytotoxicity and cell viability were assessed on uninfected plates processed in parallel, to exclude detrimental effects of the compounds on the cells. […]

[4] = CellTox green cytotoxicity assay on Vero E6 cells; settings: African green monkey, Vero E6 cells (uninfected)
[5] = CellTiter-Glo 2.0 cell viability assay on Vero E6 cells; settings: African green monkey, Vero E6 cells (uninfected)
[6] = CC50 determination on Calu-3 cells (cell viability); settings: human
SARS-CoV-2 [7] = experiment: microbe, parasite or virus in culture; format: cell-based; settings: Severe acute respiratory syndrome coronavirus 2; Calu-3 cells, percentage of virus-infected cells, 2 h pretreatment, fixed 48 h post-infection
Vero E6 cells [8] = experiment: CellTox green cytotoxicity assay on Vero E6 cells; settings: Vero E6 cells, uninfected plates, 48 h
Vero E6 cells [9] = experiment: CellTiter-Glo 2.0 cell viability assay on Vero E6 cells; settings: Vero E6 cells, uninfected plates, 48 h
in vitro [10] = settings: African green monkey
SARS-CoV-2 [11] = experiment: in vitro
in vitro [12] = settings: African green monkey; remark: listed apart in the source
SARS-CoV-2 [13] = experiment: Time-of-addition experiment in Vero E6 cells; format: cell-based; settings: 10 μM
SARS-CoV-2 [14] = format: cell-based; settings: Vero E6 supernatants, dose-dependent, TCID50
[15] = Selective Index (SI), CC50 divided by EC50, Vero E6 cells

| Compound | EC90 (SARS-CoV-2 [1]) [µM] | inhibition of SARS-CoV-2 in compound dilution series (SARS-CoV-2 [2]) | CC50 at 48 h [4] [µM] | CC50 at 48 h [5] [µM] | CC50 at 48 h [6] [µM] | other results |
| --- | --- | --- | --- | --- | --- | --- |
| CCN(CC)CCCC(C)Nc1ccnc2cc(Cl)ccc12 (centres unmarked) [Chloroquine] | 10.4 | inhibited SARS-CoV-2 in a dose-dependent manner |  |  |  |  |
| O=C(N/C(=C\c1ccccc1)C(=O)N1CCC(O)(c2ccc(Br)cc2)CC1)c1ccccc1 [K22] |  |  |  |  |  | inhibition of SARS-CoV-2-induced CPE in the survival screen (SARS-CoV-2 [3]): did not show any inhibitory activity; also recorded: did not inhibit SARS-CoV-2 infection |
| CCCCCCCCCN1C[C@H](O)[C@@H](O)[C@H](O)[C@H]1CO [NN-DNJ, N-Nonyl Deoxynojirimycin] |  | inhibited SARS-CoV-2 in a dose-dependent manner | > 100 | > 100 | > 100 |  |
| Cc1ccc(C)c(OCCCCCCN2C[C@H](O)[C@@H](O)[C@H](O)[C@H]2CO)c1 [PBDNJ0803] |  | inhibited SARS-CoV-2 in a dose-dependent manner | > 100 | > 100 | > 100 |  |
| CCC(CC)COC(=O)[C@H](C)N[P@](=O)(OC[C@H]1O[C@@](C#N)(c2ccc3c(N)ncnn23)[C@H](O)[C@@H]1O)Oc1ccccc1 [Remdesivir] | 3.39 |  |  |  |  | EC50 (SARS-CoV-2 [7]): 0.17 µM; influence on cell cytotoxicity in the screen (Vero E6 cells [8]): did not influence cell cytotoxicity; influence on cell viability in the screen (Vero E6 cells [9]): did not influence; Selective Index (SI), CC50 divided by EC50 (SARS-CoV-2 [2]): > 73.85; CC50 (in vitro [10]): > 100 µM; selectivity ratio (SARS-CoV-2 [11]; [15]): > 73.8; CC50 (in vitro [12]): > 100 µM |
| Cc1nc(-c2ccc([C@@H]3N(C)c4ccc(F)cc4C(=O)N3c3ccccc3)s2)cs1 [Retro-2.1] | 1.03 | inhibited SARS-CoV-2 in a dose-dependent manner | > 100 | > 100 | > 100 | EC50 (SARS-CoV-2 [7]): 0.08 µM; inhibitory effect on SARS-CoV-2-infected cells, treatment after infection (condition 3) (SARS-CoV-2 [13]; MOI 0.01, 24 h post-infection): most pronounced inhibitory effect; inhibitory effect on SARS-CoV-2-infected cells, treatment during infection (condition 2) (SARS-CoV-2 [13]; MOI 0.01, 24 h post-infection): more pronounced inhibition; inhibitory effect on SARS-CoV-2-infected cells, treatment prior to infection (condition 1) (SARS-CoV-2 [13]; MOI 0.01, 24 h post-infection): only a marginal reduction; reduction in viral titer, treatment after infection (condition 3) (SARS-CoV-2 [13]; supernatant at 24 h post-infection): > 1000 fold; reduction in viral titer (SARS-CoV-2 [14]): strongest reduction; selectivity ratio (SARS-CoV-2 [11]): > 239 |
| CN1CCN(Cc2ccc(-c3cnc4[nH]cc(-c5ccc6[nH]ccc6c5)c4c3)cc2)CC1 [URMC-099-C] | 1.83 | inhibited SARS-CoV-2 in a dose-dependent manner | 24.9 | 14.7 | 15.5 | Selective Index (SI), CC50 divided by EC50 (SARS-CoV-2 [2]): 50.69; selectivity ratio (SARS-CoV-2 [11]; [15]): 50.7 |

From publication PMC7760777 (Microorganisms, 2020)
